Columns and labels:
Adenosine receptor A1 = molecular target: T1, Adenosine receptor A1 (Homo sapiens, UniProt P30542)
T1 sequence (P30542 whole entry): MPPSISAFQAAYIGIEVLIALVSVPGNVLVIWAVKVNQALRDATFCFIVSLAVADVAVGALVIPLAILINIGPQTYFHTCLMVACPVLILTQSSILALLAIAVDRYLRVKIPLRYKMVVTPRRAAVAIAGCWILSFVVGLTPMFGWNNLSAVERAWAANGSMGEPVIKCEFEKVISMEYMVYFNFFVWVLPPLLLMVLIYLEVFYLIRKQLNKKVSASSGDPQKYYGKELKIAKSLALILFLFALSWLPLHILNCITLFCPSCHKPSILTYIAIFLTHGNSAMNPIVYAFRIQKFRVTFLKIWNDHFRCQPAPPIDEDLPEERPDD

Melanocortin receptor 3 = Melanocortin receptor 3 (Homo sapiens, UniProt P41968)
Melanocortin receptor 3, sequence (P41968 whole entry): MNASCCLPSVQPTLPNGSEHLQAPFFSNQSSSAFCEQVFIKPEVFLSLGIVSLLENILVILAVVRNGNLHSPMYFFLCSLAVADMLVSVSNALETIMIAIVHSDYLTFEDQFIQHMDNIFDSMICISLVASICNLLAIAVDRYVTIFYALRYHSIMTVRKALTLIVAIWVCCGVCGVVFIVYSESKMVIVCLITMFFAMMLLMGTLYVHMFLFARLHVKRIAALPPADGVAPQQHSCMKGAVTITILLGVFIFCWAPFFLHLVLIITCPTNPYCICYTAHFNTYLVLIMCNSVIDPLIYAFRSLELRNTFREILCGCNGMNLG

Adenosine receptor A3 [1] = molecular target: T2, Adenosine receptor A3 (Homo sapiens, UniProt P0DMS8)
T2 sequence (P0DMS8 whole entry): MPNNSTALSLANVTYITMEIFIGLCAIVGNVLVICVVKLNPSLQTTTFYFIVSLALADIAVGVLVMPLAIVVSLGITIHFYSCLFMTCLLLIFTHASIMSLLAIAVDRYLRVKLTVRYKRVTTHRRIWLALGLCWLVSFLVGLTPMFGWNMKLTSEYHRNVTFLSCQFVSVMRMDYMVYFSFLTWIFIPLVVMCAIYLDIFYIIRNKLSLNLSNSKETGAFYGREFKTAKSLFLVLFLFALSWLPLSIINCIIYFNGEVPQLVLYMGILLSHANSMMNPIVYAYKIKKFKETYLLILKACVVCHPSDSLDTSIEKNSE

[2] = molecular target: T3, 5-hydroxytryptamine receptor 2B (Homo sapiens, UniProt P41595); format: functional, cell-based
T3 sequence (P41595 whole entry): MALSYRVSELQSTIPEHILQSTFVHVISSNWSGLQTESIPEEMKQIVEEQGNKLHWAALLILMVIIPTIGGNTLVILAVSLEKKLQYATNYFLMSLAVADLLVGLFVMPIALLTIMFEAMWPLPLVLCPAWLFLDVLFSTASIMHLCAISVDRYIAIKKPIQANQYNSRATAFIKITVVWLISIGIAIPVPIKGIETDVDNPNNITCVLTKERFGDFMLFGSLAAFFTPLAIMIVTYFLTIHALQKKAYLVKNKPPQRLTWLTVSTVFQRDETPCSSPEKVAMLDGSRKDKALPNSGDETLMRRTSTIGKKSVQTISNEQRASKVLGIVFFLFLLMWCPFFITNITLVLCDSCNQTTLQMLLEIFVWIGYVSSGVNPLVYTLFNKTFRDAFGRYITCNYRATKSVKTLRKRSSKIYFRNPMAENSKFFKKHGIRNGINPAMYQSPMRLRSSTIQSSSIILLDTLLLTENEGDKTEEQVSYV

Adenosine receptor A3 [3] = molecular target: T2, Adenosine receptor A3; remark: listed apart in the source
[4] = molecular target: T4, Amine oxidase [flavin-containing] A (Homo sapiens, UniProt P21397); format: functional
T4 sequence (P21397 whole entry): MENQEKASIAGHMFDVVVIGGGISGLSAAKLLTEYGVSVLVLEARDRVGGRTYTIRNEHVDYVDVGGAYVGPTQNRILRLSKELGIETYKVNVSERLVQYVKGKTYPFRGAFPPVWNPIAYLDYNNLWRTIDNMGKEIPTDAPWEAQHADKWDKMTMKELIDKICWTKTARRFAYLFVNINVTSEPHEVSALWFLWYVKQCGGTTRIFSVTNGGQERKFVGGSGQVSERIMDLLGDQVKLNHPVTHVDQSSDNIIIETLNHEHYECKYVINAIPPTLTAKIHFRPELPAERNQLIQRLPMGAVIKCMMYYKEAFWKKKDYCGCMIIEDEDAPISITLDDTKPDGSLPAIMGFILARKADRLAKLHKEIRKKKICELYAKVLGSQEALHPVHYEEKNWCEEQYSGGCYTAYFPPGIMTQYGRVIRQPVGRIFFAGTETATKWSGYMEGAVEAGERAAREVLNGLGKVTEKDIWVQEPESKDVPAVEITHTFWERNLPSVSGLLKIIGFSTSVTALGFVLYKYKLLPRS

[5] = molecular target: Glutamate receptor ionotropic, NMDA 1 (Rattus norvegicus, UniProt P35439)
[6] = molecular target: T3, 5-hydroxytryptamine receptor 2B; format: functional, cell-based; remark: listed apart in the source
[7] = molecular target: Beta-2 adrenergic receptor (Homo sapiens, UniProt P07550); format: functional, cell-based
Beta-2 adrenergic receptor, sequence (P07550 whole entry): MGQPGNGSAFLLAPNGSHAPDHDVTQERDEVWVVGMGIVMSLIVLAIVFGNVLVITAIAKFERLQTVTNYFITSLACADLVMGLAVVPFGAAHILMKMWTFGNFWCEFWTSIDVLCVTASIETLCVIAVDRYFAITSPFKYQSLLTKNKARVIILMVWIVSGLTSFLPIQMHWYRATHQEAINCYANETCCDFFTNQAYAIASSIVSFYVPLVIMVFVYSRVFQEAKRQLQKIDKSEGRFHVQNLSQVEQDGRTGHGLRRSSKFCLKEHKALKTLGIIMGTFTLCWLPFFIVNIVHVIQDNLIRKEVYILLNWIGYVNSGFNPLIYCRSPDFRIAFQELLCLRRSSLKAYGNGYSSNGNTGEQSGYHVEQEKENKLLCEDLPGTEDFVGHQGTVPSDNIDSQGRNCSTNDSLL

[8] = molecular target: Delta-type opioid receptor (Homo sapiens, UniProt P41143)
Delta-type opioid receptor, sequence (P41143 whole entry): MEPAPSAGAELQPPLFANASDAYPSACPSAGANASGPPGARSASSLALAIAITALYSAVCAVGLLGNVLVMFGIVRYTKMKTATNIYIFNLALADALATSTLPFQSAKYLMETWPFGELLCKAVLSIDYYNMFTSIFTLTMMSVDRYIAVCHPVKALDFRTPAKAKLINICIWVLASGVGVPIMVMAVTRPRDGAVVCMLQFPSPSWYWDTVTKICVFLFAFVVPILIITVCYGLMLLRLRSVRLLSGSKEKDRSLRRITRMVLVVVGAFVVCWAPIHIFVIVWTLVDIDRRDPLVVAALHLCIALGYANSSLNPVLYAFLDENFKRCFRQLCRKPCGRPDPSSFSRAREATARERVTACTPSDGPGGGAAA

Progesterone receptor = molecular target: T5, Progesterone receptor (Homo sapiens, UniProt P06401); format: functional
T5 sequence (P06401 whole entry): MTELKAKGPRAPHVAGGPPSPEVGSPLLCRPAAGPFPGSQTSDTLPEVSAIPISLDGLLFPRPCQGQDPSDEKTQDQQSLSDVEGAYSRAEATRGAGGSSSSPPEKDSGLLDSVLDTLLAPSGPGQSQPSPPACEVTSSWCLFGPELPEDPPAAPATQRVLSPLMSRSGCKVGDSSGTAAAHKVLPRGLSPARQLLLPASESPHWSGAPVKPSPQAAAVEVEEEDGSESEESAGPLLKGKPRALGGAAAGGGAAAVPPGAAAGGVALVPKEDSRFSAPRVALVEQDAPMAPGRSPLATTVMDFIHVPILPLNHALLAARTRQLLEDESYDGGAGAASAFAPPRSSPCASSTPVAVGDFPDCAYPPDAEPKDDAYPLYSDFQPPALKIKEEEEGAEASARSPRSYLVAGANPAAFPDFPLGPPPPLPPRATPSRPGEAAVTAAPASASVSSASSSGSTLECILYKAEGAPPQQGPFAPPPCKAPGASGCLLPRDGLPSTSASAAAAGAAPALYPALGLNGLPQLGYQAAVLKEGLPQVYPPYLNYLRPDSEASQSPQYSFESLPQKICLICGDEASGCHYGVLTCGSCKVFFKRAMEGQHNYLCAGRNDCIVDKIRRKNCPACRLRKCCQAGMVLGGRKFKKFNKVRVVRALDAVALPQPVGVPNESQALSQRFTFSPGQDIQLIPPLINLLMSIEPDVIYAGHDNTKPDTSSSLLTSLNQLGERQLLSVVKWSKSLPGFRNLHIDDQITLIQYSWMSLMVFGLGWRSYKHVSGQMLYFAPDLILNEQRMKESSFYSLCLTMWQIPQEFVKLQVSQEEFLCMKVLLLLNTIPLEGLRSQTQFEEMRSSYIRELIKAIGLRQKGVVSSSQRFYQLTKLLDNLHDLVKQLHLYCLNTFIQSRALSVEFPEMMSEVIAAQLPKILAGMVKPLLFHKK
Further: assay procedure not described here.

| SMILES | AC50 (Adenosine receptor A1) | AC50 (Melanocortin receptor 3) | AC50 (Adenosine receptor A3 [1]) | AC50 [2] | AC50 (Adenosine receptor A3 [3]) | AC50 [4] | AC50 [5] | AC50 [6] | AC50 [7] | AC50 [8] | AC50 (Progesterone receptor) |
| --- | --- | --- | --- | --- | --- | --- | --- | --- | --- | --- | --- |
| O=C(O)Cc1ccccc1Nc1c(Cl)cccc1Cl [DICLOFENAC] | > 30 µM | > 30 µM | > 30 µM | > 10 µM | > 3 µM | > 10 µM | > 10 µM | > 10 µM | > 30 µM | > 30 µM |  |
| O=C(O)Cc1ccccc1Oc1ccc(Cl)cc1Cl [FENCLOFENAC] | > 30 µM | > 30 µM | > 30 µM | > 10 µM | > 30 µM | > 10 µM | > 10 µM | > 10 µM | > 30 µM | > 30 µM |  |
| Cc1onc(-c2c(F)cccc2Cl)c1C(=O)N[C@@H]1C(=O)N2[C@@H]1SC(C)(C)[C@@H]2C(=O)O [FLOXACILLIN] | > 30 µM | > 30 µM | > 30 µM | > 30 µM |  | > 30 µM |  | > 30 µM | > 30 µM | > 30 µM | > 30 µM |
| Cc1ccc(C)c(OCCCC(C)(C)C(=O)O)c1 [GEMFIBROZIL] | > 30 µM | > 30 µM | > 30 µM | 4.4 µM | > 30 µM | > 10 µM | > 10 µM | > 10 µM | > 30 µM | > 30 µM |  |
| COc1cc(C(C)=O)ccc1OCCCN1CCC(c2noc3cc(F)ccc23)CC1 [ILOPERIDONE] | > 30 µM | > 30 µM | > 30 µM | 1.8 µM |  | > 30 µM |  | > 30 µM | > 30 µM | > 30 µM | > 30 µM |
| CN1Cc2c(N)cccc2C(c2ccccc2)C1 (stereo not given) [NOMIFENSINE] | > 30 µM | > 30 µM | > 30 µM |  |  | > 30 µM | > 30 µM | > 30 µM | > 30 µM | > 30 µM | > 30 µM |
| S=P(N1CC1)(N1CC1)N1CC1 [THIOTEPA] | > 30 µM | > 30 µM | > 30 µM | 1.6 µM |  | > 30 µM |  | > 30 µM | > 30 µM | > 30 µM | > 30 µM |
| CC(C)C[C@H](NC(=O)[C@@H](O)[C@H](N)Cc1ccccc1)C(=O)O [UBENIMEX] |  | > 30 µM | > 30 µM | > 30 µM |  | > 30 µM | > 30 µM | > 30 µM | > 30 µM | > 30 µM | > 30 µM |
| O=C1Cc2cc(CCN3CCN(c4nsc5ccccc45)CC3)c(Cl)cc2N1 [ZIPRASIDONE] | > 30 µM | > 30 µM | > 30 µM | 0.229 µM | 8.66 µM | > 10 µM | > 10 µM | > 30 µM | > 30 µM | > 30 µM |  |

— ChEMBL document CHEMBL5291721, “A preclinical secondary pharmacology resource illuminates target-adverse drug reaction associations of marketed drugs” (Nat Commun, 2023)
